Assay results reported in ChEMBL document CHEMBL6120963, “Discovery of Novel PROTAC SIRT6 Degraders with Potent Efficacy against Hepatocellular Carcinoma” (J Med Chem, 2024).
Activity calls are given as the source filed them. The rule behind the calls is not given here.

Experiments:
Assay type in all cases: cell-based
[1] = biological target: T1, Protein cereblon/NAD-dependent protein deacylase sirtuin-6 (Homo sapiens, UniProt Q8N6T7+Q96SW2); experiment: PROTAC activity at CRBN/SIRT6 in human SK-HEP1 cells assessed as induction of SIRT6 degradation at 5 uM incubated for 36 hrs by In-Cell ELISA relative to control
[2] = biological target: T1, Protein cereblon/NAD-dependent protein deacylase sirtuin-6; experiment: PROTAC activity at CRBN/SIRT6 in human SK-HEP1 cells assessed as induction of SIRT6 degradation at 0.5 uM incubated for 36 hrs by In-Cell ELISA relative to control
[3] = biological target: T1, Protein cereblon/NAD-dependent protein deacylase sirtuin-6; experiment: PROTAC activity at CRBN/SIRT6 in human SK-HEP1 cells assessed as induction of SIRT6 degradation at 2 uM incubated for 36 hrs by In-Cell ELISA relative to control
[4] = biological target: T1, Protein cereblon/NAD-dependent protein deacylase sirtuin-6; experiment: PROTAC activity at CRBN/SIRT6 in human SK-HEP1 cells assessed as induction of SIRT6 degradation at 2 to 3 uM incubated for 36 hrs by Western blot analysis; conditions: dose 2-3 µM
SK-HEP1 [5] = experiment: Induction of SIRT6 degradation in human SK-HEP1 cells at 5 uM incubated for 36 hrs by In-Cell ELISA relative to control
SK-HEP1 [6] = experiment: Induction of SIRT6 degradation in human SK-HEP1 cells at 0.5 uM incubated for 36 hrs by In-Cell ELISA relative to control
[7] = biological target: T1, Protein cereblon/NAD-dependent protein deacylase sirtuin-6; experiment: PROTAC activity at CRBN/SIRT6 in human SK-HEP1 cells assessed as induction of SIRT6 degradation at 200 nM incubated for 36 hrs by In-Cell ELISA relative to control
[8] = biological target: T1, Protein cereblon/NAD-dependent protein deacylase sirtuin-6; experiment: PROTAC activity at CRBN/SIRT6 in human SK-HEP1 cells assessed as hook effect upto 5 uM incubated for 36 hrs by Western blot analysis

T1 sequence (Q8N6T7 2-355 limits assumed): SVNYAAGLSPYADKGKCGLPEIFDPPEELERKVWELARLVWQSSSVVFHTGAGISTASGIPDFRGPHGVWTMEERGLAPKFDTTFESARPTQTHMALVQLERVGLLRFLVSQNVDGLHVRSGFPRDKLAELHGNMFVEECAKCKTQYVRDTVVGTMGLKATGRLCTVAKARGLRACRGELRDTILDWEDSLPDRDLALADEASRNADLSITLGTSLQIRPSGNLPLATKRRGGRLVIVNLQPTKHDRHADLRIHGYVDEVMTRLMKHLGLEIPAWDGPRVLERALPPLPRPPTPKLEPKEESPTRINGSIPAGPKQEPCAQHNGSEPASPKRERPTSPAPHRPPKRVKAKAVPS
T1 sequence (Q96SW2 whole entry partner): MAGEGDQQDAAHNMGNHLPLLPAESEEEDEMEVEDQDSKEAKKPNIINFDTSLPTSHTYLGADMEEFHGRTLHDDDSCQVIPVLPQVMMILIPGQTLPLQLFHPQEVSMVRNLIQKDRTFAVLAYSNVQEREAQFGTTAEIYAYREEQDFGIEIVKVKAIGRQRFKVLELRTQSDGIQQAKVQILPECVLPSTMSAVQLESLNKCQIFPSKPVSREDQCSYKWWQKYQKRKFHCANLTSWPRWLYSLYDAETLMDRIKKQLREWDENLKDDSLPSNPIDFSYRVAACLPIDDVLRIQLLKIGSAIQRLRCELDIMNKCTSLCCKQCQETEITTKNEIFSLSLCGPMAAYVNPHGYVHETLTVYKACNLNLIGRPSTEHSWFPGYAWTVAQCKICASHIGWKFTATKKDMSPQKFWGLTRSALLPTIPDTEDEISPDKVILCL

Compound	Activity [1] [%]	Activity [2] [%]	Activity [3] [%]	Activity [4]	Activity [7] [%]	other results
Nc1cc(N2CCN(CCCCC(=O)Nc3cccc4c3C(=O)N(C3CCC(=O)NC3=O)C4=O)CC2)ccc1[N+](=O)[O-] (centres undefined)	49.3	18.2				
Nc1cccc2c1C(=O)N(C1CCC(=O)NC1=O)C2=O (centres undefined)						Activity (SK-HEP1 [5]): 10.9%; Activity (SK-HEP1 [6]): 6.5%
Nc1cc(N2CCN(CCC3CCN(c4ccc5c(c4)C(=O)N(C4CCC(=O)NC4=O)C5=O)CC3)CC2)ccc1[N+](=O)[O-] (centres undefined)			79.6	Active	11.2	
Nc1cc(N2CCN(CCCC(=O)Nc3cccc4c3C(=O)N(C3CCC(=O)NC3=O)C4=O)CC2)ccc1[N+](=O)[O-] (centres undefined)	87.3	72.1				
Nc1cc(N2CCN(CCNCC3CCN(c4cc5c(cc4F)C(=O)N(C4CCC(=O)NC4=O)C5=O)CC3)CC2)ccc1[N+](=O)[O-] (centres undefined)			84.7	Active	60.5	
Nc1cc(N2CCN(CCNCC3CN(c4cc5c(cc4F)C(=O)N(C4CCC(=O)NC4=O)C5=O)C3)CC2)ccc1[N+](=O)[O-] (centres undefined)			83.5		46.1	
Nc1cc(N2CCN(CCNC(=O)CNc3cccc4c3C(=O)N(C3CCC(=O)NC3=O)C4=O)CC2)ccc1[N+](=O)[O-] (centres undefined)	91.4	86.5		Active		
Nc1cc(N2CCN(CC3CCCN(c4ccc5c(c4)C(=O)N(C4CCC(=O)NC4=O)C5=O)C3)CC2)ccc1[N+](=O)[O-] (centres undefined)			87.1	Active	< 10	
Nc1cc(N2CCN(CC3C4CN(c5cc6c(cc5F)C(=O)N(C5CCC(=O)NC5=O)C6=O)CC34)CC2)ccc1[N+](=O)[O-] (centres undefined)			95.6	Active	89.4	
Nc1cc(N2CCN(C(=O)CNc3cccc4c3C(=O)N(C3CCC(=O)NC3=O)C4=O)CC2)ccc1[N+](=O)[O-] (centres undefined)	15.4					
Nc1cc(N2CCN(CC3CN(c4cc5c(cc4F)C(=O)N(C4CCC(=O)NC4=O)C5=O)C3)CC2)ccc1[N+](=O)[O-] (centres undefined)			20.6		< 10	
Nc1cc(N2CCN(CC3CN(c4ccc5c(c4)C(=O)N(C4CCC(=O)NC4=O)C5=O)C3)CC2)ccc1[N+](=O)[O-] (centres undefined)			11		50.6	
Nc1cc(N2CCN(CCNCCCC3CCN(c4ccc5c(c4)C(=O)N(C4CCC(=O)NC4=O)C5=O)CC3)CC2)ccc1[N+](=O)[O-] (centres undefined)			82.4	Active	53.2	
Nc1cc(N2CCN(CCCCCC(=O)Nc3cccc4c3C(=O)N(C3CCC(=O)NC3=O)C4=O)CC2)ccc1[N+](=O)[O-] (centres undefined)	36.8	47.8				
Nc1cc(N2CCN(CCNCC3C4CN(c5ccc6c(c5)C(=O)N(C5CCC(=O)NC5=O)C6=O)CC34)CC2)ccc1[N+](=O)[O-] (centres undefined)			15.4			
Nc1cc(N2CCN(CCNCCC3CCN(c4cc5c(cc4F)C(=O)N(C4CCC(=O)NC4=O)C5=O)CC3)CC2)ccc1[N+](=O)[O-] (centres undefined)			74.8	Active		
Nc1cc(N2CCN(CC3C4CN(c5ccc6c(c5)C(=O)N(C5CCC(=O)NC5=O)C6=O)CC34)CC2)ccc1[N+](=O)[O-] (centres undefined)			17.8			
Nc1cc(N2CCN(CCNC(=O)COc3cccc4c3C(=O)N(C3CCC(=O)NC3=O)C4=O)CC2)ccc1[N+](=O)[O-] (centres undefined)	72.3	85.7				
Nc1cc(N2CCN(C(=O)COc3cccc4c3C(=O)N(C3CCC(=O)NC3=O)C4=O)CC2)ccc1[N+](=O)[O-] (centres undefined)	15.8	32.2				
Nc1cc(N2CCN(CCC(=O)Nc3cccc4c3C(=O)N(C3CCC(=O)NC3=O)C4=O)CC2)ccc1[N+](=O)[O-] (centres undefined)	47.2	25.6				

Continued, in another order:

Activity [1] [%]	Activity [2] [%]	Activity [3] [%]	Activity [4]	Activity [7] [%]	Compound	other results
		< 10			Nc1cc(N2CCN(CCNCC3CCN(c4ccc5c(c4)C(=O)N(C4CCC(=O)NC4=O)C5=O)C3)CC2)ccc1[N+](=O)[O-] (centres undefined)	
80.8	44.9		Active		Nc1cc(N2CCN(CCOCCOCCOCC(=O)Nc3cccc4c3C(=O)N(C3CCC(=O)NC3=O)C4=O)CC2)ccc1[N+](=O)[O-] (centres undefined)	
	27.8				Nc1cc(N2CCN(CCOCCOCCOCCOCC(=O)Nc3cccc4c3C(=O)N(C3CCC(=O)NC3=O)C4=O)CC2)ccc1[N+](=O)[O-] (centres undefined)	
		< 10			Nc1cc(N2CCN(CCNCC3CCN(c4ccc5c(c4)C(=O)N(C4CCC(=O)NC4=O)C5=O)CC3)CC2)ccc1[N+](=O)[O-] (centres undefined)	
		78.4	Active	66.2	Nc1cc(N2CCN(CCNCC3CCN(c4cc5c(cc4F)C(=O)N(C4CCC(=O)NC4=O)C5=O)C3)CC2)ccc1[N+](=O)[O-] (centres undefined)	
		98.5	Active	81.2	Nc1cc(N2CCN(CCNCC3CCCN(c4cc5c(cc4F)C(=O)N(C4CCC(=O)NC4=O)C5=O)C3)CC2)ccc1[N+](=O)[O-] (centres undefined)	
		98.9	Active	84.9	Nc1cc(N2CCN(CCCC3CCN(c4ccc5c(c4)C(=O)N(C4CCC(=O)NC4=O)C5=O)CC3)CC2)ccc1[N+](=O)[O-] (centres undefined)	
		19.8		< 10	Nc1cc(N2CCN(CCC3CCN(c4cc5c(cc4F)C(=O)N(C4CCC(=O)NC4=O)C5=O)CC3)CC2)ccc1[N+](=O)[O-] (centres undefined)	
90.6	46.7		Active		Nc1cc(N2CCN(CCOCCOCC(=O)Nc3cccc4c3C(=O)N(C3CCC(=O)NC3=O)C4=O)CC2)ccc1[N+](=O)[O-] (centres undefined)	
		< 10			Nc1cc(N2CCN(CCNCC3C4CN(c5cc6c(cc5F)C(=O)N(C5CCC(=O)NC5=O)C6=O)CC34)CC2)ccc1[N+](=O)[O-] (centres undefined)	
17.4	< 5				Nc1cc(N2CCN(CC(=O)Nc3cccc4c3C(=O)N(C3CCC(=O)NC3=O)C4=O)CC2)ccc1[N+](=O)[O-] (centres undefined)	
		51.6		74.2	Nc1cc(N2CCN(CCNCC3CCCN(c4ccc5c(c4)C(=O)N(C4CCC(=O)NC4=O)C5=O)C3)CC2)ccc1[N+](=O)[O-] (centres undefined)	
		97.9	Active	64.3	Nc1cc(N2CCN(CCNCCCC3CCN(c4cc5c(cc4F)C(=O)N(C4CCC(=O)NC4=O)C5=O)CC3)CC2)ccc1[N+](=O)[O-] (centres undefined)	
		73.6		49.3	Nc1cc(N2CCN(CCNCCC3CCN(c4ccc5c(c4)C(=O)N(C4CCC(=O)NC4=O)C5=O)CC3)CC2)ccc1[N+](=O)[O-] (centres undefined)	
		56.6		< 10	Nc1cc(N2CCN(CC3CCCN(c4cc5c(cc4F)C(=O)N(C4CCC(=O)NC4=O)C5=O)C3)CC2)ccc1[N+](=O)[O-] (centres undefined)	Activity [8]: inactive
		99.8	Active	94.5	Nc1cc(N2CCN(CC3CCN(c4cc5c(cc4F)C(=O)N(C4CCC(=O)NC4=O)C5=O)C3)CC2)ccc1[N+](=O)[O-] (centres undefined)	
